Laboratory results: patent US9603896B2, “Peptide compounds and methods of production and use thereof” (priority 2012, dated 2017)
Ends that are not written are not given here.

Key:
[1] = test system: Acinetobacter baumannii ATCC® BAA-747™; assay: In vitro bactericidal assay (CFU remaining, log reduction); format: cell-based; settings: for reduction of CFU/ml / bactericidal activity against Acinetobacter baumannii: 60 minutes; for reduction of CFU/ml: highest peptide concentrations (25 μM); for bactericidal activity against Acinetobacter baumannii: peptides up to 25 μM, gentamicin 4 μg/ml
Experimental: The three peptide compounds BCC01-5RMP (SEQ ID NO:21), BCC02-5RMP (SEQ ID NO:22), and BCC03-5RMP (SEQ ID NO:23) were assayed for in vitro bactericidal activity against Pseudomonas aeruginosa, Escherichia coli, Salmonella typhimurium, and Acinetobacter baumannii. The starting inoculum for all experiments was 1×10^6 colony forming units (CFU)/ml. The CFU remaining at the end of 60 to 180 minute incubation was determined, and the data plotted as a log reduction in CFU/ml.
For FIGS. 10-13, in vitro bactericidal assays were performed using a starting inoculum of 1×10^6 CFU/ml of the bacterial suspension. The CFU remaining at the end of the 60-180 minute incubation was determined, and the data was plotted as log reduction in CFU/ml.
In particular, each of the test peptides (CAP37 peptides 120-146WR, 120-146WH, and 95-122 (SEQ ID NOs: 30, 31, and 26, respectively)) was used at 25, 12.5, 6.25, and 3.12 μM. Gentamicin was used at 4 μg/ml. 1×10^6/ml Acinetobacter baumannii ATCC® BAA-747″ or Pseudomonas aeruginosa ATCC® 27853™ (American Type Culture Collection, Manassas, Va.) were incubated with the peptides, negative buffer control (tryptone saline), and positive control gentamicin at pH 5.5 or 7.2. A 60 minute incubation was used for Acinetobacter baumannii ATCC® BAA747™, while a 180 minute incubation was used for Pseudomonas aeruginosa ATCC® 27853™. 50 μl aliquots were plated out on agar plates and incubated overnight. Colony forming units were counted after overnight incubation and CFU/ml calculated.

[2] = test system: P. aeruginosa (ATCC® 27853™); assay: Pseudomonas keratitis model in the mouse eye; format: in vivo; settings: topical, doses of 10 and 20 mg/ml
Experimental: A circular wound was created on the mouse cornea by removing the epithelium and infected with 10^5 colony forming units (CFU) of P. aeruginosa (ATCC® 27853™ (American Type Culture Collection, Manassas, Va.)). Infected wounds were treated with saline (0.9% sodium chloride, vehicle control) or saline containing indicated concentrations of peptide every 15 minutes for 2 hours, then every 30 minutes for 3 hours on the first day. Infected wounds were treated twice on the second day and once on the third day. Mice were killed at 48 hours post-infection, and CFU/eye were quantified. The means were plotted and are representative of 5 to 9 mice per group. Mann Whitney test was performed for each group as compared to the saline control group. *P=0.014.
A circular wound (2 mm) was created on the mouse cornea by removing the epithelium and infecting the wound with 10^5 CFU of P. aeruginosa (ATCC® 27853™ (American Type Culture Collection, Manassas, Va.)). Infected wounds were treated with saline or saline containing indicated concentrations of peptide every 15 minutes for 2 hours, then every 30 minutes for 3 hours on the first day. Infected wounds were treated twice on the second day and once on the third day. Mice were killed at 48 hours post-infection, and the colony forming units per eye (CFU/eye) were quantified. The means are plotted and are representative of 5 to 9 mice per group. Mann Whitney test was performed for each group as compared to the saline control group.
For FIGS. 15-17, in vivo bactericidal activity of the peptides was also investigated using the standard Pseudomonas keratitis model in the mouse eye (FIGS. 15-17). Peptides 120-146QR-5RMP (SEQ ID NO:32), 120-146WH (SEQ ID NO:31), and 120-146WR (SEQ ID NO: 30) were applied topically at doses of 2, 5, 10, and 20 mg/ml to the wounded cornea that had been infected with 10^5 CFU of Pseudomonas aeruginosa. The efficacies of the peptides were compared to treatment with the vehicle control. Mice were euthanized at 48 hours post infection, and the CFU/eye were quantified.

swine skin = assay: Swine full thickness excisional dermal wound model; format: in vivo; settings: for Mean Wound Healing (%): topical 3 mg/ml, 0.20 ml per wound daily; for histology: epidermal resurfacing and maturation vs saline control: day 14 post-wounding; for dermal wound healing vs saline: topically at 3 mg/ml, over 14 days; for Histopathology Results, Mean Angiogenesis / Histopathology Results, Mean Epithelization / Histopathology Results, Mean Granulation / Histopathology Results, Mean Inflammation: wounds harvested day 14, 3 mg/ml topical
Experimental: In this Example, peptide compounds of the presently disclosed and claimed inventive concept(s) were evaluated as to their activity on the dermal wound healing process in a clinically relevant swine full thickness excisional wound model. Three different peptide formulations (Group B, Peptide 95-122 (SEQ ID NO:26); Group C, Peptide 120-146WH (SEQ ID NO:31); and Group D, Peptide 120-146QH-5RMP (SEQ ID NO:33)) were each evaluated at the same concentration (3 mg/ml). Sterile saline served as the control (Group A).
Full thickness excisional wounds were induced on the dorsum of swine (N=3) using a 1.0 cm biopsy punch. Treatments were administered (0.20 ml) to each wound (N=6 wounds per group), and the wounds were dressed with standard occlusive dressing ([…]™, 3M Corporation, St. Paul, Minn.). Treatments were reapplied daily and dressings changed. Clinical wound healing observations and wound area (2 mm) measurements were performed on days 0, 3, 5, 7, 10, and 14 post-wounding. Wound area (2 mm) data were expressed as percentage (%) of wound healing. Animals were terminated on day 14 with wounds harvested and processed for histological evaluation. […] All peptide formulation treatment groups healed faster with greater rate of closure and re-epithelialization over time, as compared to the saline control (Group A).

| Sequence | activity against A. baumannii ([1]; 25 μM) | reduction of CFU/ml ([1]; pH 5.5) [logs] | reduction of CFU/ml ([1]; pH 7.2) [logs] | CFU/eye at 48 hours post infection vs saline [2] | Mean Wound Healing (%) (swine skin; Day 0) | Mean Wound Healing (%) (swine skin; Day 3) | Mean Wound Healing (%) (swine skin; Day 5) | Mean Wound Healing (%) (swine skin; Day 7) | Mean Wound Healing (%) (swine skin; Day 10) | Mean Wound Healing (%) (swine skin; Day 14) | histology: epidermal resurfacing and maturation vs saline control (swine skin) | dermal wound healing vs saline (swine skin) | Histopathology Results, Mean Angiogenesis (swine skin) | Histopathology Results, Mean Epithelization (swine skin) | Histopathology Results, Mean Granulation (swine skin) | Histopathology Results, Mean Inflammation (swine skin) | bactericidal activity against Acinetobacter baumannii ([1]; pH 5.5) | bactericidal activity against Acinetobacter baumannii ([1]; pH 7.2) |
| --- | --- | --- | --- | --- | --- | --- | --- | --- | --- | --- | --- | --- | --- | --- | --- | --- | --- | --- |
| GTRCQVAGWGSWHSGGRLSRFPRFVNV [Peptide 120-146WH] | highly active | ~4 | ~5.5 | significantly reduced the CFU/eye | 0.0 | 22.1 | 35.9 | 59.7 | 93.5 | 97.5 | greater extent of epidermal resurfacing and maturation of the epidermis | accelerate dermal wound healing | 1.7 | 3.7 | 4.0 | 0.5 |  |  |
| LDREANLTSSVTILPLPLQNATVEAGTR (listed as Homo sapiens) [Peptide 95-122] |  |  |  |  | 0.0 |  |  |  |  | 100.0 | greater extent of epidermal resurfacing and maturation of the epidermis | accelerate dermal wound healing | 2.3 | 4.0 | 4.0 | 0.5 | not active | not active |
